Results published in patent US10266549B2, “ULK1 inhibitors and methods using same” (SALK INSTITUTE FOR BIOLOGICAL STUDIES, priority 2014, dated 2019).

Tests used:
WT ULK1 = WT ULK1 (Homo sapiens (Human), UniProt O75385); test: in vitro kinase assay, WT ULK1, MBP substrate, radiolabeled ATP; assay type: biochemical; conditions: 10-μM MBP, 30-μM γ-32P-ATP; triplicate, ten-dose, 3-fold serial dilution from 1 μM
Procedure: (§1) WT ULK1 (left) and WT ULK2 (right) were assayed using 10-μM MBP in the presence of 30-μM radiolabeled γ-^32P-ATP.
(§2) To further examine how ULK1 regulates autophagy, we sought to identify small molecule ATP competitive kinase inhibitors of ULK1. Screening a library of chemical compounds for inhibitors of ULK1 kinase activity in vitro, we identified a lead compound that was further elaborated through a medicinal chemistry effort to produce compound 14. […] To further characterize the ability of compound 14 and related derivatives to inhibit ULK1 in cells, we tested the ability of these compounds to inhibit the phosphorylation of Vps34 Ser249 when epitope-tagged Vps34 was co-expressed in HEK293T cells with a wild-type ULK1 cDNA. Screening 40 compounds, we found compound 14 inhibited P-Vps34 on overexpressed Vps34 when used at ˜5 μM (FIG. 7B). We next examined the sensitivity of phosphorylation of Vps34 Serine 249 versus Beclin Serine 15 to two structurally distinct ULK1 inhibitors, when cDNAs bearing each were introduced into HEK293T cells. […] (FIG. 11A).

WT ULK2 = WT ULK2 (Homo sapiens (Human), UniProt Q8IYT8); test: in vitro kinase assay, WT ULK2, MBP substrate, radiolabeled ATP; assay type: biochemical; conditions: 10-μM MBP, 30-μM γ-32P-ATP; triplicate, ten-dose, 3-fold serial dilution from 1 μM
Procedure: as §1, §2

ULK1 = test: phosphorylation of ULK1 substrates (Vps34 Ser249, Beclin Ser15) in HEK293T cells co-expressing wild-type ULK1; assay type: cell-based, human
Procedure: At 24-hr post-transfection, cells were treated with a panel of putative ULK1 competitive inhibitors in a dose-response manner (1, 10, 50 μM). Cellular lysates were isolated after 1 hr of treatment and immunoblotted with the indicated antibodies. Representative results for compound 14 are shown.
FIG. 7C: HEK293T cells were transfected with WT or KI ULK1 and WT Vps34 (left) or WT Flag-tagged Beclin1 (WT Beclin1; right). At 24-hr post-transfection, cells were treated with compound 14 (10 μM) or DMSO. Cellular lysates were isolated after 1 hr of treatment and immunoblotted with the indicated antibodies.
For transient expression in HEK293T cells were transfected with 2 ug each DNA plasmid per 6 cm dish using Lipofectamine 2000 (Invitrogen) following the manufacturer's protocol. Cells were harvested 24 hours after transfection and rinsed once with ice-cold PBS and lysed in boiling SDS lysis buffer (10 mM Tris pH7.5, 100 mM NaCl, 1% SDS). After trituration, lysates were equilibrated for protein levels using the BCA method (Pierce) and resolved on 8 to 15% SDS-PAGE Phos-Tag™ gels according to the manufacturer's instructions. Briefly, Phos-Tag™ AAL-107 (HARD #304-93521) was added to SDS-PAGE acryamide mixture at a final concentration of 50 μM along with MnCl2 at a final concentration of 100 μM. […]

endogenous ULK1 = endogenous ULK1 activity in MEFs: mobility shift of Beclin1 and Atg13; assay type: cell-based, mouse; conditions: WT MEFs, 10 μM co-treatment, 1 hr
Procedure: FIG. 7D: WT or Ulk1/Ulk2 double knockout mouse embryonic fibroblasts (MEFs) were treated with fresh media (Dulbecco's modified Eagle medium [DMEM] containing 10% FBS) containing 1-μM INK128, 1-μM AZD8055, or DMSO or with starvation media (EBSS) in the presence or absence of 10 μM compound 14. Cellular lysates were isolated after 1 hr of treatment and immunoblotted with the indicated antibodies. Asterisk denotes non-specific band.
We next examined whether compound 14 inhibits endogenous ULK1 activity. To activate endogenous ULK1, we treated MEFs with either amino acid starvation media (Earle's balanced salt solution [EBSS]) or the mTOR ATP-competitive inhibitors INK128 or AZD8055. In WT MEFs, we observed a mobility shift in endogenous Beclin1 and Atg13 in response to EBSS starvation media or the mTOR catalytic inhibitors, which was abolished in Ulk1/2-deficient MEFs (FIG. 7D). […] In certain embodiments, the mobility shifts observed in endogenous Beclin1 and Atg13 induced by mTOR inhibitors and starvation media reflect phosphorylation of endogenous Beclin1/Atg13 by endogenous ULK1/2 as they only occur in WT but not Ulk1/2-deficient MEFs.

AuroraA kinase = AuroraA kinase (Homo sapiens (Human), UniProt O14965); test: classic in vitro kinase assay, dose-response (Reaction Biology); assay type: biochemical; conditions: dose-response curves
Procedure: (§3) Kinase inhibitor specificity profiling assays were first carried out using DiscoveRx KINOMEscan competition binding assay against a panel of 456 kinases (www dot discoverx dot corn) using 1 μM compound 14.
(§4) To use a more well-established measure of the selectivity of compound 14 against its top binding kinases, we examined dose-response curves for its inhibition of these kinases in a classic in vitro kinase assays. Here we tested the ten kinases most suppressed by compound 14 by the ATP binding assay. […] It is important to note that even though compound 14 inhibits these 4 kinase quite equivalently across all of the different assays we have examined, this is still greater selectivity than all but a handful of widely used ATP-competitive kinases inhibitors widely used in clinical oncology today. We next examined the ability of compound 14 to suppress signaling downstream of various kinases in cells in culture. […] Similarly, compound 14 inhibited FAK and AuroraA comparably to ULK1 in MEFs as well.

FAK = FAK (Homo sapiens (Human), UniProt Q05397); test: as above; assay type: biochemical; conditions: dose-response curves
Procedure: as §3, §4

JAK2 = JAK2 (Homo sapiens (Human), UniProt O60674); test: as above; assay type: biochemical; conditions: dose-response curves
Procedure: as §3, §4

Sequence of WT ULK1 (O75385 whole entry): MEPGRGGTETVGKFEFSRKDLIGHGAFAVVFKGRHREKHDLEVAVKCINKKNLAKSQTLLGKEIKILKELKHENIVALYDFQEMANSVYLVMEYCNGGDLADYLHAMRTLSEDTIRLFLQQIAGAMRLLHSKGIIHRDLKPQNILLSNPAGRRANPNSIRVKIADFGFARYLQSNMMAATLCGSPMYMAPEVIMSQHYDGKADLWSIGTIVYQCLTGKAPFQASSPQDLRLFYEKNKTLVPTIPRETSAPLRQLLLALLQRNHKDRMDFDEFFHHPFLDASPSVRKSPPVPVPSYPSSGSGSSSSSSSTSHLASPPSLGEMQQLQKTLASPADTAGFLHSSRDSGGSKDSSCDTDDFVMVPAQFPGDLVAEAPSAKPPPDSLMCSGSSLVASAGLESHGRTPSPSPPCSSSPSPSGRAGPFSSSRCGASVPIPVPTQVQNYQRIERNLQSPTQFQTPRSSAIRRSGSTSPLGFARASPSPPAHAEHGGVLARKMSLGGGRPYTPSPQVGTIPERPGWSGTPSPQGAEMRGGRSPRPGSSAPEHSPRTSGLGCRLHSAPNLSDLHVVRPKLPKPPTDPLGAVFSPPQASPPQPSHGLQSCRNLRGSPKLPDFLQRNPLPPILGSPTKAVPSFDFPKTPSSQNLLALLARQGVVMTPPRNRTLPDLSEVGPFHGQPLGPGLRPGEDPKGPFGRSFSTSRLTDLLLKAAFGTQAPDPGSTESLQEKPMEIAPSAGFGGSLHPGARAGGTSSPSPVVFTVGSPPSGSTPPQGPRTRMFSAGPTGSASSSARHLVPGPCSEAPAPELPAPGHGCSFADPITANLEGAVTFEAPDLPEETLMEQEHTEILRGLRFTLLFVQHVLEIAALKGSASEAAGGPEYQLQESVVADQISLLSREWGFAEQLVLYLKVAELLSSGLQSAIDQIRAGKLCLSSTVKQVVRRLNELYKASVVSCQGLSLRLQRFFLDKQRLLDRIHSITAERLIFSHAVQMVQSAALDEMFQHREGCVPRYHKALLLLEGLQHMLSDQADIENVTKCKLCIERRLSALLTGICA
Sequence of WT ULK2 (Q8IYT8 whole entry): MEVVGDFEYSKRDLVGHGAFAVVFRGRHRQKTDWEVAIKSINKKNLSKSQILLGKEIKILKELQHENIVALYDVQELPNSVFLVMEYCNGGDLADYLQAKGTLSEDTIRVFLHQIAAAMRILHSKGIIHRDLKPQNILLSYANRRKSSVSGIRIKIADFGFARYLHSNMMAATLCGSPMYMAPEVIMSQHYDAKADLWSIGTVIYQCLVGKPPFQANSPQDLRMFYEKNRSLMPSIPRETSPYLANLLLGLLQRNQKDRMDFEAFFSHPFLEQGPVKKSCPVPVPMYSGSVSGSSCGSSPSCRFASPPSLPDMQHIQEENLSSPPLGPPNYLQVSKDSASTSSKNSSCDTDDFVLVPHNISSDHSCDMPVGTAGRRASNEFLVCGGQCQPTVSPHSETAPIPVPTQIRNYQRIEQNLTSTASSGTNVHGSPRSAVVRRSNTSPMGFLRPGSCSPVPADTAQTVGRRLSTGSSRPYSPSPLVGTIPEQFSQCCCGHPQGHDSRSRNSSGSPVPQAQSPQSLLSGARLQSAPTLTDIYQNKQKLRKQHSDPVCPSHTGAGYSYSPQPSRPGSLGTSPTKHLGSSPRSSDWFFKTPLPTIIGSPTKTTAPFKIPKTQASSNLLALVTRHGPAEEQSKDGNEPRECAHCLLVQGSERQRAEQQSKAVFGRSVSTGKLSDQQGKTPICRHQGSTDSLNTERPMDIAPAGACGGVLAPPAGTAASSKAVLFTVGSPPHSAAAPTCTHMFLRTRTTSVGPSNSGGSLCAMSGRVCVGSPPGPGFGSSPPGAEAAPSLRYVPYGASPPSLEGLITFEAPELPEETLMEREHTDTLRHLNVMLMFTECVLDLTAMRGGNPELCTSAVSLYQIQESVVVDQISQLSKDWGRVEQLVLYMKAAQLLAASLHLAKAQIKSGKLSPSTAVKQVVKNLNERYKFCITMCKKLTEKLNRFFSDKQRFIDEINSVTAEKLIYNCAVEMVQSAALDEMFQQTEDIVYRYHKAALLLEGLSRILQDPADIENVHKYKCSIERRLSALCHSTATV
Sequence of FAK (Q05397 whole entry): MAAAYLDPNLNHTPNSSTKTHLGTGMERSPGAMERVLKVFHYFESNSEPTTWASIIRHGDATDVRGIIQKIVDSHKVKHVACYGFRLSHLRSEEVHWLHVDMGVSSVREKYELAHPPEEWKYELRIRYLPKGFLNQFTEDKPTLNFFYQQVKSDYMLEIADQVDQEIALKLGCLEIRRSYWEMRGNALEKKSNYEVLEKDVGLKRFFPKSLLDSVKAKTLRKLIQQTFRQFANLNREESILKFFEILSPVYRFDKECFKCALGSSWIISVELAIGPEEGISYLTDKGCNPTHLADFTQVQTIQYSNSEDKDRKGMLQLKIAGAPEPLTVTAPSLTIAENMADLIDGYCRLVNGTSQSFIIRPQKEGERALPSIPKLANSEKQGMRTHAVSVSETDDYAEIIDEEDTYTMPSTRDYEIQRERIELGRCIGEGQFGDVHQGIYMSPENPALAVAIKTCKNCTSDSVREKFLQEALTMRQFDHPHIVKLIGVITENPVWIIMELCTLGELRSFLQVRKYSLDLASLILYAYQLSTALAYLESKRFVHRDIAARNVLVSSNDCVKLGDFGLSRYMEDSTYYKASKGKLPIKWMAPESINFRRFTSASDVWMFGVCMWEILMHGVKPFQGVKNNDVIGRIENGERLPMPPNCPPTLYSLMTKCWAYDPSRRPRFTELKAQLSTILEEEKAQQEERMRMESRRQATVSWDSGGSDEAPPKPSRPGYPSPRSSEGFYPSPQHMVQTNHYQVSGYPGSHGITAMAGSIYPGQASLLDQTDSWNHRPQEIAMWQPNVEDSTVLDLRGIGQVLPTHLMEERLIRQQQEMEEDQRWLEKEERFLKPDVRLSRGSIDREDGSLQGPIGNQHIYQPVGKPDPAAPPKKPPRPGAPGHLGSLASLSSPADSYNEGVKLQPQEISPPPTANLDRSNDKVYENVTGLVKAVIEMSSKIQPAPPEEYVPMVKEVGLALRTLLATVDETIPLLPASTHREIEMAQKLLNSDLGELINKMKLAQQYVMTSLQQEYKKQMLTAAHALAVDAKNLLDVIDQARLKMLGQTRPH
Sequence of JAK2 (O60674 whole entry): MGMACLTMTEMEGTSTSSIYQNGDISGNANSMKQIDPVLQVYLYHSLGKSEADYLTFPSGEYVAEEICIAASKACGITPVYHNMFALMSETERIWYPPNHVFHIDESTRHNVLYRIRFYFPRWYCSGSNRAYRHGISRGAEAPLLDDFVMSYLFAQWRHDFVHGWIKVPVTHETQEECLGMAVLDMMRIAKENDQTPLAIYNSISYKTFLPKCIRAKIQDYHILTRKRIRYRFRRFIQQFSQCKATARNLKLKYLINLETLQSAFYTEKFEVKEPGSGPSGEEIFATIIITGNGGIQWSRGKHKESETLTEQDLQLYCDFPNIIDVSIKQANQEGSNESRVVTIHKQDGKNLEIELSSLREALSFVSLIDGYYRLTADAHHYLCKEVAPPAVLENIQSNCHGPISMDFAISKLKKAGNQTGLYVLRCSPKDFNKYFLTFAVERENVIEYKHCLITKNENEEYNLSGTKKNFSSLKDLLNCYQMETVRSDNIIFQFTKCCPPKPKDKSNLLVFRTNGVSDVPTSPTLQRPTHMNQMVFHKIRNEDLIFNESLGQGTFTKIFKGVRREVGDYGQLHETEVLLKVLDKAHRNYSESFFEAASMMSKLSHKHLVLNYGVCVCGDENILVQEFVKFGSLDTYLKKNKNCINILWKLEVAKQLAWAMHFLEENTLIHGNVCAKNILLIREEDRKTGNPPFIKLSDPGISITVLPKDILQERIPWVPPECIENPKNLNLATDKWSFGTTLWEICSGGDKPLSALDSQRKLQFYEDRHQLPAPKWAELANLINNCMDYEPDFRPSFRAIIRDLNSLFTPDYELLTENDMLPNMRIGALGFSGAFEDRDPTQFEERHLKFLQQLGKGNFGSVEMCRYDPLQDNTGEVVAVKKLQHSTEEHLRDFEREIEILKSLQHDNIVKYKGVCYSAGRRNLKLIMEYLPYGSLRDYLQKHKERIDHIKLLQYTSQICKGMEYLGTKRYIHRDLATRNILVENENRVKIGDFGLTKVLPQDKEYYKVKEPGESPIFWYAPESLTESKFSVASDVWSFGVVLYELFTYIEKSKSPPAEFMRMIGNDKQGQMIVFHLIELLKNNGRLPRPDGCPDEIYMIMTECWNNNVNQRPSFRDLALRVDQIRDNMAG
Sequence of AuroraA kinase (O14965 whole entry): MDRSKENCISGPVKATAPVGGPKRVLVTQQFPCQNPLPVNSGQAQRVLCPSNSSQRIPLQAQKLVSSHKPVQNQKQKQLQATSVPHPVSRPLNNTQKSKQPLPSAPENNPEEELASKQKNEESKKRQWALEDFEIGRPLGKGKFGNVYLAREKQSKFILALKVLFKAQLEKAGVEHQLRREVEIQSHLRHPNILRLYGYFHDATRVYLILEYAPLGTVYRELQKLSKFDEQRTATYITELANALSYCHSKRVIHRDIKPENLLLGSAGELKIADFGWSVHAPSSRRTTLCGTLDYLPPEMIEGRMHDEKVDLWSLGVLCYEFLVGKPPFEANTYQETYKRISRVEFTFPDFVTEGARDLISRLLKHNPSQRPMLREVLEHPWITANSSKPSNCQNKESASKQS

For `CNC(=O)c1ccccc1Nc1nc(Nc2cc(OC)c(OC)c(OC)c2)ncc1Br` [compound 14, 2-(5-bromo-2-(3,4,5-trimethoxyphenylamino)pyrimidin-4-ylamino)-N-methylbenzamide], the IC50 (WT ULK1) was 0.107 µM, the IC50 (WT ULK2) was 0.711 µM and the “inhibition of Beclin Ser15 and Vps34 Ser249 phosphorylation” value (ULK1; 10 μM, 1 hr) was “inhibited Beclin Ser15 and Vps34 Ser249 to comparable extents”. The “concentration inhibiting P-Vps34 on overexpressed Vps34” value (ULK1; WT ULK1 + Flag-Vps34, 1 hr treatment) was about 5 µM, the “EBSS and mTOR-inhibitor induced mobility shift in Beclin1 and Atg13” value (endogenous ULK1) was “inhibited” and the “inhibition relative to ULK1” value (AuroraA kinase) was “equivalently inhibited”. The “inhibition relative to ULK1” value (FAK) was “equivalently inhibited” and the “inhibition relative to ULK1” value (JAK2) was “equivalently inhibited”.
